Assay [1] can be described thus: Inhibition of HIV1 integrase assessed as reduction in LEDGF-independent integration pre-incubated for 1 hr before addition of DNA donor and acceptor substrate and measured after 90 mins by HTRF assay. More on the design: species or system Human immunodeficiency virus 1. (In TR-FRET formats the signal depends on donor and acceptor labels being close together.)
Assay [2] relates to Human immunodeficiency virus 1. As to the kind of experiment: Binding affinity to HIV1 integrase assessed as conjugation of enzyme at 7.5 to 25 uM in presence of UV illumination for 15 mins by SDS-PAGE analysis based photoaffinity labelling method. To be noted: dose microM 7.5-25, time 15.0 min.
Assay [3] concerns Human immunodeficiency virus 1. Put plainly: Binding affinity to HIV1 integrase assessed as induction of cross-linking at peptide region 164ELK166 at 7.5 to 25 uM in presence of UV illumination for 15 mins in presence of trypsin by LC-MS analysis. To be noted: dose microM 7.5-25, time 15.0 min.
In assay [4] the test system is Human immunodeficiency virus 1. Put plainly: Binding affinity to HIV1 integrase assessed as induction of cross-linking at peptide region 42EIVASCDK49 at 7.5 to 25 uM in presence of UV illumination for 15 mins in presence of trypsin by LC-MS analysis. To be noted: dose microM 7.5-25, time 15.0 min.
Assay [5] deals with Human immunodeficiency virus 1. Put plainly: Binding affinity to HIV1 integrase assessed as induction of enzyme molecular weight shift at 7.5 to 25 uM in presence of UV illumination for 15 mins by LC-MS analysis. To be noted: dose microM 7.5-25, time 15.0 min.

The source made the active and inactive calls. No cut-off for these calls is given here.

As usually defined, the IC50 is the midpoint of a concentration-inhibition curve. Consider `CC(C)c1nc(C(=O)O)c(O)c(=O)n1C`, for which the IC50 in assay [1] stood at 73 µM.
Take `CC(C)c1nc(C(=O)NCc2ccc(C(=O)c3ccccc3)cc2)c(O)c(=O)n1C`: the result in assay [2], in assay [3], in assay [4] and in assay [5] was Active. Further, in assay [1], the IC50 is 2.3 µM.
For `Cc1nnc(C(=O)NC(C)(C)c2nc(C(=O)NCc3ccc(F)cc3)c(O)c(=O)n2C)o1` [RALTEGRAVIR], the IC50 in assay [1] worked out at 0.058 µM.

The values are drawn from ChEMBL document CHEMBL4725446, “Development of a Raltegravir-based Photoaffinity-Labeled Probe for Human Immunodeficiency Virus-1 Integrase Capture” (ACS Med Chem Lett, 2020).
